This passage reports concentration results from ChEMBL document CHEMBL3745656, “Discovery of Inhibitors That Overcome the G1202R Anaplastic Lymphoma Kinase Resistance Mutation” (J Med Chem, 2015).

Data set [1] is described as follows: Plasma concentration in mouse at 2 mg/kg, iv after 8 hrs. Type of data set: ADME, organism-based.
Data set [2] can be described thus: Plasma concentration in mouse at 10 mg/kg, po after 2 hrs. Type of data set: ADME, organism-based.
Data set [3] can be described thus: in vivo. The settings on record: mouse, brain, iv, 2 mg/kg.
Description: Drug level in mouse brain at 2 mg/kg, iv after 8 hrs
Data set [4] can be described thus: Plasma concentration in mouse at 2 mg/kg, iv after 2 hrs. Type of data set: ADME, organism-based.
A short description of data set [5]: Plasma concentration in mouse at 10 mg/kg, po after 8 hrs. Type of data set: ADME, organism-based.
The nature of data set [6]: in vivo. To be noted: mouse, brain, po, 10 mg/kg.
Description: Drug level in mouse brain at 10 mg/kg, po after 8 hrs

Take `CCc1cc2c(cc1-c1cnn(CCCN(C)C)c1)C(C)(C)c1[nH]c3cc(C#N)ccc3c1C2=O`: the concentration at 8 h in data set [1] was 50 nM; in data set [3], 80 nM; in data set [5] it was 170 nM. For the same molecule, the concentration at 2 h in data set [2] and in data set [4] was 210 nM each time.
In the case of `CCc1cc2c(cc1-c1cnn(CC(=O)N(C)C)c1)C(C)(C)c1[nH]c3cc(C#N)ccc3c1C2=O`, the concentration at 8 h in data set [3] and in data set [6] was 4 nM each time.
